Data reported in patent US20080113347A1, “Method for the in Vitro Diagnosis and Prognosis of Demyelinating Diseases, and for the Development of Drugs Against Demyelinating Diseases” (priority 2003, published 2008).

Tested on: dusp6 gene expression
Assay: Differential analysis of dusp6 gene expression in oligodendrocyte cultures with Rat Genome U34 DNA arrays
Type: cell-based
Design: key to Change: Increases (I); Decreases (D); undergoes No Change (NC); Marginally Increases (MI); Marginally Decreases (MD); key to Detection: Present (P); Absent (A); Marginal (M)
Settings: for SLR (vs control): Signal Log Ratio (log2); for Signal (dusp6, probe set U42627_at): arrays scaled to total intensity 100; for Change: vs control
Description: Microarrays. The microarrays GeneChip Test 3 (Affymetrix, Santa Clara) were used which allow testing the quality of the RNA prior to the expression analysis with GeneChip Rat Genome U34 set (Affymetrix, Santa Clara), representing 3322 complete gene sequences. The dusp6 gene is represented in the microarray by probe set U42627_at of Affymetrix, which are sense oligonucleotides of 25 nucleotides in length designed on the basis of GeneBank U42627 sequence (Table 1).
Samples. The samples studied corresponded to primary oligodendrocyte cultures obtained from the optic nerve of 12-day old rats. To prevent inter-individual variations, each culture corresponded to a 10-animal cell pool. Treatments were made in duplicate with 10 μM AMPA (α-amino-3-hydroxy-5-methyl-4-isoxazolepropionic acid) or 3 μM kainate. The duration of treatments was 2, 10 and 15 minutes, the cells being collected immediately after treatment in the first two cases and 1 hour after the 15-minute treatment. Treatment for 10 and 15 minutes with AMPA and with kainate causes apoptosis, whereas 2-minute treatment was considered sublethal due to scarce treatment duration. After treatments, the cells were collected in TRIzol® Reagent (Life Technologies) and were stored at −80° C. until total RNA extraction.
The analysis was carried out with total RNA from oligodendrocyte cultures. Each sample corresponded to the mixture of total RNAs from two cultures and were called the following: control: untreated cultured oligodendrocytes ampa 2: oligodendrocytes treated for 2 minutes with 10 μM AMPA and collected after treatment ampa 10: oligodendrocytes treated for 10 minutes with 10 μM AMPA collected after treatment ampa 15: oligodendrocytes treated for 15 minutes with 10 μM AMPA and collected 60 minutes later Kainate 2: oligodendrocytes treated for 2 minutes with 3 μM kainate and collected after treatment Kainate 10: oligodendrocytes treated for 10 minutes with 3 μM kainate and collected after treatment Kainate 15: oligodendrocytes treated for 15 minutes with 3 μM kainate and collected 60 minutes later The total RNA of each one of the cultures was obtained by homogenizing the cells in TRIzol® Reagent (Life Technologies) following the supplier's recommendations. The resulting total RNA was cleaned with the RNeasy Mini kit (QIAGEN) (Chomczynski P. et al., Anal. Biochem., 1987, 162: 156; Chomczynski P., Biotechniques, 1993, 15: 532). 2 μg from each total RNA preparation were used as starting material for the synthesis of biotinylated cRNA with the MessageAmp™ aRNA kit (Ambion).
15 μg of each biotinylated cRNA were fragmented at 94° C. for 35 minutes in a buffer solution containing 40 mM Tris-Acetate (pH 8.1), 100 mM KOAc and 30 mM MgOAc. The fragmented cRNA was mixed with hybridization buffer (10 mM MES, 1M NaCl, 20 mM EDTA, 0.01% Tween 20) and was heated at 99° C. for 5 minutes and subsequently at 45° C. for 5 minutes, to then be loaded into the Affymetrix array. The first array in which hybridization was carried out was Affymetrix Test 3. This array allows testing the quality of the RNA prior to expression analysis in the Affymetrix® GeneChip® Rat Genome U34 set (RG-U34).
For hybridization, the arrays were incubated in a rotary oven at 45° C. for 16 hours and with a constant rotation of 60 rpm.
Washing and staining of each array was carried out in the Affymetrix® Fluidics Station. A washing and staining program was used which included:
The arrays were scanned at 560 nm using a confocal microscope using laser emission (Agilent GeneArray Scanner). Analysis of the intensity readings was carried out with Microarray Suite 5.0 software. To compare the arrays, the latter were scaled to a total intensity of 100.
Differential analysis of the dusp6 gene expression in the oligodendrocytes stimulated with regard to the control was carried out from the array comparison data obtained using the Affymetrix software. […]

[1] = treated 2 minutes (10 μM AMPA or 3 μM kainate), collected after treatment
[2] = treated 10 minutes (10 μM AMPA or 3 μM kainate), collected after treatment
[3] = treated 15 minutes (10 μM AMPA or 3 μM kainate), collected 60 minutes later

Cc1onc(O)c1CC(N)C(=O)O (stereo not drawn) [AMPA, α-amino-3-hydroxy-5-methyl-4-isoxazolepropionic acid]
SLR (vs control) [1]: 0.8 | SLR (vs control) [2]: 1.2 | SLR (vs control) [3]: 2.1 | Ratio (=2^SLR) (fold change vs untreated control, treated 2 minutes (10 μM AMPA or 3 μM kainate), collected after treatment): 1.7 fold | Detection [1]: P | Signal (dusp6, probe set U42627_at) [1]: 75.3 | Detection [2]: P | Signal (dusp6, probe set U42627_at) [2]: 101.7 | Detection [3]: P | Signal (dusp6, probe set U42627_at) [3]: 149.7 | Change [1]: I | Change [2]: I | Change [3]: I
